Source: patent US11918618B2, “Composition for preventing or treating gastritis or peptic ulcer” (CHONG KUN DANG PHARMACEUTICAL CORP., priority 2017, dated 2024)

Key:
stomach ulcer = experiment: Inhibition of Indomethacin-induced stomach ulcer in rats (stomach ulcer index); assay type: in vivo; conditions: rat, single oral dose 75.0 mg/kg, Indomethacin 80 mg/kg
Description: In order to confirm the inhibition rate of stomach ulcer of the Example 1 and Comparative examples 1 to 6, the test was carried out according to the following method. Test animals were randomly assigned to 10 animals of specific pathogen free (SPF) 7-week-old rat males per group so that the average body weight was maximally uniformly distributed throughout the adaptation period (7 days). […] All animals were fasted 48 hours before administration of test substances and control drug, and then each of test substances and control drug was orally administered, and Indomethacin previously prepared 30 minutes after administration was orally administered at a dose of 80 mg/kg. After anesthetizing with diethyl ether 5 hours after administration of Indomethacin, stomach was removed and the gastric mucosa was photographed with a digital camera. The area of the damaged site was analyzed using ImageJ software (NIH, Bethesda, Md.). The stomach ulcer index was measured according to the following Equation 1. Stomach ulcer index (%)=(damage area/total area)×100 [Equation 1] The stomach ulcer test by volume for the Example 1 was tested by the method as Experimental example 1, and was shown in Table 5.

stomach mucus = experiment: Effect of improving stomach mucosal amount (alcian blue binding) in Indomethacin-treated rats; assay type: in vivo; conditions: rat, oral dose 100.0 mg/kg, Indomethacin 80 mg/kg
Description: In order to confirm the effect of improving the mucosal amount of the Example 1 and Comparative examples 1 to 6, the test was carried out according to the following method. Test animals were randomly assigned to 10 animals of specific pathogen free (SPF) 7-week-old rat males per group so that the average body weight was maximally uniformly distributed throughout the adaptation period (7 days). All animals were fasted 48 hours before administration and then test substances and control drug were orally administered, and 30 minutes after administration, Indomethacin 80 mg/kg was orally administered. […] After mixing the extract solution with diethyl ether in the same amount and shaking, it was centrifuged at 3,500 rpm for 10 minutes and for the supernatant, the absorbance was measured at 605 nm. 0.1% w/v alcian blue 8 GX solution was diluted with 0.25 M sucrose solution and standard solution was prepared and thereby a standard curve was fabricated and the measured absorbance value was converted into the amount of alcian blue combined with the stomach mucus, and the result was shown in Table 3.

PGE2 = experiment: Improvement of PGE2 in serum (PGE2 ELISA Kit) of Indomethacin-treated rats; assay type: in vivo; conditions: rat serum, oral dose 100.0 mg/kg
From the text: Since the recovery mechanism of stomach mucous membrane blood stream and epithelial cells is maintained and the action of preserving cells of the stomach mucous membrane was shown, when PGE2 in serum is increased, the enhanced improvement of PGE2 affects treatment of gastritis or stomach ulcer. In order to confirm the effect of the Example 1 and Comparative examples 2, 5 to 6 according to the present invention for this improvement of PGE2, for the blood collected in Test example 2, serum was separated according to the protocol provided by the manufacturer of PGE2 ELISA Kit and then sampling treatment was carried out, and then it was analyzed, and the result was shown in the following Table 4.

[1] = reported in the literature; cited from earlier work

Structure (SMILES): CNC(=C[N+](=O)[O-])NCCSCc1ccc(CN(C)C)o1 [Comparative example 4, Ranitidine]
- Inhibition rate (%), compared to the induced group (stomach ulcer): 97.0%
- Stomach ulcer index (%) (stomach ulcer): 0.20 ± 0.29 %

Structure (SMILES): O=C(NC(Cc1cc(=O)[nH]c2ccccc12)C(=O)O)c1ccc(Cl)cc1 (stereo not shown) [Comparative example 5, Rebamipide]
- Mucosal amount (stomach mucus): 10.6 ± 3.7 µg/L
- Mucosal amount, % compared to the normal group (stomach mucus): 94.6%
- PGE2 (PGE2): 1.82 ± 0.14 ng/mL
- PGE2, % compared to the normal group (PGE2; normal group 100, induced group 0): 77.7%

Structure (SMILES): O=C/C=C/c1ccccc1 [cinnamic aldehyde]
- stability at the room temperature [1]: low
